The IC50 is the concentration at which inhibition is half-maximal. Usually Emax stands for the size of the effect at its maximum, as opposed to the concentration needed. The term EC50 denotes the concentration at which the effect is half-maximal.

Assay [1] deals with IL-1β cytokine output from THP-1s. The assay can be described thus: THP-1 AlphaLISA IL-1β cytokine assay. To be noted: Homo sapiens, LPS 24 hr then Nigericin 1 hour, read-out: IL-1β (IC50). Format: cell-based, human. The method in brief: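 AlphaLISA read-out of cytokine released into supernatants of differentiated THP-1 cells. Cells were PMA-treated for 72 h, exposed to compound for 30 min, stimulated with LPS for 24 h, then given nigericin for 1 h before harvest. IC50 values come from normalised concentration-response curves.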
Background: Bead proximity is the source of the signal in Alpha formats.

Assay [2] has as its system IL-6 cytokine output from THP-1s. The experiment in a line: THP-1 AlphaLISA IL-6 cytokine assay. It counts as cell-based, human. To be noted: Homo sapiens; PMA-differentiated THP-1 cells, LPS 24 hr then Nigericin 1 hour. The protocol: Measuring Inhibitory Effects on IL-1β and IL-6 Cytokine Output from THP-1s
The cytokine inhibition profiles of compounds of formula (IW-1) were determined in a differentiated THP-1 cell assay. All assays were performed in RPMI-1640 growth medium (Gibco), supplemented with 10% fetal bovine serum (FBS; Gibco), 1% penicillin-streptomycin and 1% sodium pyruvate unless specified otherwise. The IL-1β and IL-6 cytokine inhibition assays were each run in a background of differentiated THP-1 cells as described below. All reagents described were from Sigma-Aldrich unless specified otherwise. Compounds were prepared as 10 mM DMSO stocks.
THP-1 cells were expanded as a suspension up to 80% confluence in appropriate growth medium. Cells were harvested, suspended, and treated with an appropriate concentration of phorbol 12-myristate 13-acetate (PMA) over a 72 hr period (37° C./5% CO2).
Following 72 hrs of THP-1 cell incubation, cellular medium was removed and replaced with fresh growth media containing 1% of FBS. Working concentrations of compounds were prepared separately in 10% FBS treated growth medium and pre-incubated with the cells for 30 minutes (37° C./5% CO2). Following the 30 minute compound pre-incubation, THP-1s were treated with an appropriate concentration of LPS and the THP-1s were subsequently incubated for a 24 hr period (37° C./5% CO2). An appropriate final concentration of Nigericin was then dispensed into the THP-1 plates and incubated for 1 hour (37° C./5% CO2) before THP-1 supernatants were harvested and collected in separate polypropylene 96-well holding plates.
Reagents from each of the IL-1β and IL-6 commercial kits (Perkin Elmer) were prepared and run according to the manufacturer's instructions. Subsequently, fluorescence signal detection in a microplate reader was measured (EnVision® Multilabel Reader, Perkin Elmer).
Percentage inhibition was calculated per cytokine by normalising the sample data to the high and low controls used within each plate (+/−LPS respectively). Percentage inhibition was then plotted against compound concentration and the 50% inhibitory concentration (IC50) was determined from the resultant concentration-response curve.

Assay [3] concerns NRF2. The assay can be described thus: NRF2 +/-GSH activation assay (DiscoverX PathHunter NRF2 translocation kit, U2OS cells). Format: cell-based. To be noted: Homo sapiens; for Emax: read-out: NRF2 activation Emax; for EC50: read-out: NRF2 activation EC50. The protocol: Measuring Compound Activation Effects on the Anti-Inflammatory Transcription Factor NRF2 in DiscoverX PathHunter NRF2 Translocation Kit
Potency and efficacy of compounds of formula (IW-1) against the target of interest to activate NRF2 (nuclear factor erythroid 2-related factor 2) were determined using the PathHunter NRF2 translocation kit (DiscoverX). The NRF2 translocation assay was run using an engineered recombinant cell line, utilising enzyme fragment complementation to determine activation of the Keap1-NRF2 protein complex and subsequent translocation of NRF2 into the nucleus. Enzyme activity was quantified using a chemiluminescent substrate consumed following the formation of a functional enzyme upon PK-tagged NRF2 translocation into the nucleus.
The assay was run under either +/−GSH (glutathione) conditions to determine the attenuating activities of GSH against target compounds.
Additionally, a defined concentration of dimethyl fumarate was used as the ‘High’ control to normalise test compound activation responses to.
U2OS PathHunter eXpress cells were thawed from frozen prior to plating. Following plating, U2OS cells were incubated for 24 hrs (37° C./5% CO2) in commercial kit provided cell medium.
Following 24 hrs of U2OS incubation, cells were directly treated with an appropriate final concentration of compound, for −GSH conditions, or for +GSH conditions, an intermediate plate containing 6× working concentrations of compound stocks was prepared in a 6 mM working concentration of GSH solution (solubilised in sterile PBS). Following a 30 minute compound-GSH pre-incubation (37° C./5% CO2) for +GSH treatment, plated U2OS cells were incubated with an appropriate final concentration of compound and GSH.
Following compound (+/−GSH) treatment, the U2OS plates were incubated for a further 6 hours (37° C./5% CO2) before detection reagent from the PathHunter NRF2 commercial kit was prepared and added to test plates according to the manufacturer's instructions. Subsequently, the luminescence signal detection in a microplate reader was measured (PHERAstar®, BMG Labtech).
Percentage activation was calculated by normalising the sample data to the high and low controls used within each plate (+/−DMF). Percentage activation/response was then plotted against compound concentration and the 50% activation concentration (EC50) was determined from the plotted concentration-response curve.

Where [4] appears, read: THP-1, PMA-differentiated THP-1 cells.
Where [5] appears, read: U2OS, normalised to dimethyl fumarate 'High' control, GSH condition not stated in Table 5.
Setting [6] is: U2OS PathHunter cells, 6 hours, GSH condition not stated in Table 5.

The structures appear in SMILES notation. Read-outs that look alike come from different tables or passages of the source.

As for `C=C(CC(=O)OCCCCCCCC)C(=O)OCCN1CCN(C)CC1` [Example 51, 1-(2-(4-methylpiperazin-1-yl)ethyl) 4-octyl 2-methylenesuccinate], the 50% inhibitory concentration (IC50) was 7.3 µM in assay [1] (setting [4]) and 4 µM in assay [2].
Turning to `C=C(CC(=O)OC1CCCCCCC1)C(=O)OCCS(C)(=O)=O` [Example 25, 4-cyclooctyl 1-(2-(methylsulfonyl)ethyl) 2-methylenesuccinate], the IC50 in assay [1] (setting [4]) and in assay [2] was 1.9 µM each time.
Regarding `C=C(CC(=O)OCCCCCCCC)C(=O)OC1CS(=O)(=O)C1` [Example 47, 1-(1,1-dioxidothietan-3-yl) 4-octyl 2-methylenesuccinate], the results for the half-maximal inhibitory concentration (IC50) in assay [1] (setting [4]) and in assay [2] were 3.3 µM and 3 µM, respectively.
Turning to `C=C(CC(=O)OCCCCCCCC)C(=O)OCC1(C#N)CC1` [Example 32, 1-((1-cyanocyclopropyl)methyl) 4-octyl 2-methylenesuccinate], the IC50 in assay [1] (setting [4]) turned out to be 18.9 µM; in assay [2], 9.5 µM.
The corresponding values for `C=C(CC(=O)OC1CCCCCCC1)C(=O)OCCN1CCCC1=O` [Example 71, 4-cyclooctyl 1-(2-(2-oxopyrrolidin-1-yl)ethyl) 2-methylenesuccinate] are 8.7 µM and 9.6 µM.
The corresponding values for `C=C(CC(=O)OCCS(=O)(=O)c1ccc(C)cc1)C(=O)OCC(=O)O` [Example 97, 2-((2-methylene-4-oxo-4-(2-tosylethoxy)butanoyl)oxy)acetic acid] are 29.3 µM and 30.3 µM.
Take `C=C(CC(=O)OC1CCCCC1)C(=O)OC1CS(=O)(=O)C1` [Example 60, 4-cyclohexyl 1-(1,1-dioxidothietan-3-yl) 2-methylenesuccinate]: the IC50 in assay [1] (setting [4]) was determined as 1.9 µM; in assay [2], 1.4 µM.
`C=C(CC(=O)O[C@H](C)CCCCCC)C(=O)OC1CS(=O)(=O)C1` [Example 57, (R)-1-(1,1-dioxidothietan-3-yl) 4-(octan-2-yl) 2-methylenesuccinate]: the results for the IC50 in assay [1] (setting [4]) and in assay [2] were 4.4 µM and 2.6 µM, respectively.
Consider `C=C(CC(=O)OCCCCCCCC)C(=O)OC1(C)COC1` [Example 68, 1-(3-methyloxetan-3-yl) 4-octyl 2-methylenesuccinate], for which the figures for the IC50 in assay [1] (setting [4]) and in assay [2] were 24 µM and 9.1 µM, respectively.
The corresponding values for `C=C(CC(=O)OCCCCCCCC)C(=O)OCCC(=O)NC` [Example 110, 1-(3-(methylamino)-3-oxopropyl) 4-octyl 2-methylenesuccinate] are 8.5 µM and 4.4 µM.
For `C=C(CC(=O)OCCOCCOCC)C(=O)OCCS(C)(=O)=O` [Example 36, 4-(2-(2-ethoxyethoxy)ethyl) 1-(2-(methylsulfonyl)ethyl) 2-methylenesuccinate], in that order: 20.5 µM and 8.9 µM.
As to `C=C(CC(=O)OC1CC2(COC2)C1)C(=O)O[C@H]1[C@@H]2CC[C@H]1CN(S(C)(=O)=O)C2` [Example 157, 1-((endo)-3-(methylsulfonyl)-3-azabicyclo[3.2.1]octan-8-yl) 4-(2-oxaspiro[3.3]heptan-6-yl) 2-methylenesuccinate], the IC50 in assay [1] (setting [4]) was found to be 41.6 µM. In addition, the Emax in assay [3] (setting [5]) is 29%. For the same molecule, in assay [3] (setting [6]), the EC50 is > 100 µM.
For `C=C(CC(=O)OC(C)COCCCC)C(=O)O[C@H]1[C@@H]2CC[C@H]1CN(S(C)(=O)=O)C2` (stereo partly drawn) [Example 159, 4-(1-butoxypropan-2-yl) 1-((endo)-3-(methylsulfonyl)-3-azabicyclo[3.2.1]octan-8-yl) 2-methylenesuccinate], in that order: 31.9 µM, 86% and 13.8 µM.
As for `C=C(C(=O)OCC(=O)O)C(O)C(=O)OC1CCCCCCC1` (stereo not shown) [Example 189, 2-((4-(cyclooctyloxy)-3-hydroxy-2-methylene-4-oxobutanoyl)oxy)acetic acid], the IC50 in assay [1] (setting [4]) came to 57.9 µM. The Emax in assay [3] (setting [5]) was determined as 137%. Besides, in assay [3] (setting [6]), the EC50 was 18 µM.
Turning to `C=C(CC(=O)OC1CCCCCCC1)C(=O)OC(C(=O)O)C(F)(F)F` (stereo not shown) [Example 122, 2-((4-(cyclooctyloxy)-2-methylene-4-oxobutanoyl)oxy)-3,3,3-trifluoropropanoic acid], in assay [1] (setting [4]), the IC50 was 13 µM. Moreover, the Emax in assay [3] (setting [5]) turned out to be 178%. Also, the EC50 in assay [3] (setting [6]) was 17.5 µM.
`C=C(CC(=O)OC1CCCCC1)C(=O)OCCc1nnn[nH]1` [Example 128, 1-(2-(1H-tetrazol-5-yl)ethyl) 4-cyclohexyl 2-methylenesuccinate]: the IC50 in assay [1] (setting [4]) was 32.7 µM. Further, in assay [3] (setting [5]), the Emax amounted to 104%. Besides, the EC50 in assay [3] (setting [6]) was found to be 38 µM.
As to `C=C(CC(=O)O[C@H](C)CCCCCC)C(=O)OCCc1nnn[nH]1` [Example 135, (R)-1-(2-(1H-tetrazol-5-yl)ethyl) 4-octan-2-yl 2-methylenesuccinate], the IC50 in assay [1] (setting [4]) was 4.2 µM. Besides, in assay [3] (setting [5]), the Emax turned out to be 157%. The EC50 in assay [3] (setting [6]) amounted to 11.1 µM.
Consider `C=C(CC(=O)OC1CCCCCCC1)C(=O)OC(CC(=O)O)C(F)(F)F` (stereo not shown) [Example 144, 3-((4-(cyclooctyloxy)-2-methylene-4-oxobutanoyl)oxy)-4,4,4-trifluorobutanoic acid], for which the IC50 in assay [1] (setting [4]) turned out to be 1.7 µM. For the same molecule, in assay [3] (setting [5]), the Emax was determined as 176%. Also, the EC50 in assay [3] (setting [6]) stood at 2.1 µM.
For `C=C(CC(=O)OC1CCCOCC1)C(=O)O[C@H]1[C@@H]2CC[C@H]1CN(S(C)(=O)=O)C2` (stereo partly drawn) [Example 158, 1-((endo)-3-(methylsulfonyl)-3-azabicyclo[3.2.1]octan-8-yl) 4-(oxepan-4-yl) 2-methylenesuccinate], the IC50 in assay [1] (setting [4]) worked out at 24.2 µM. Further, the Emax in assay [3] (setting [5]) came out at 43%. Moreover, the EC50 in assay [3] (setting [6]) was 72.8 µM.
For the molecule `C=C(CC(=O)OC1CC2(CCC2)C1)C(=O)OCC(O)(O)C(F)(F)F` [Example 160, 4-spiro[3.3]heptan-2-yl 1-(3,3,3-trifluoro-2,2-dihydroxypropyl) 2-methylenesuccinate Hydrate], the IC50 in assay [1] (PMA-differentiated THP-1 cells) was 8.1 µM. Besides, the EC50 in assay [3] (U2OS, 6 h) was 72.6 µM. Further, the Emax in assay [3] (U2OS) was 7%.
On to `C=C(CC(=O)OC1CCCCCCC1)C(=O)OCCc1nnn[nH]1` [Example 130, 1-(2-(1H-tetrazol-5-yl)ethyl) 4-cyclooctyl 2-methylenesuccinate], for which the IC50 in assay [1] (setting [4]) amounted to 16 µM. For the same molecule, the Emax in assay [3] (setting [5]) worked out at 164%. Further, the 50% effective concentration (EC50) in assay [3] (setting [6]) was 29.1 µM.
For `C=C(CC(=O)OCCCCCC)C(=O)OCCc1nnn[nH]1` [Example 78, 1-(2-(1H-tetrazol-5-yl)ethyl) 4-hexyl 2-methylenesuccinate], in that order: 4.2 µM, 177% and 17.7 µM.
With `C=C(CC(=O)OC1CCCCC1)C(=O)OC1CCN(S(C)(=O)=O)CC1` [Example 75, 4-cyclohexyl 1-(1-(methylsulfonyl)piperidin-4-yl) 2-methylenesuccinate], the IC50 in assay [1] (setting [4]) worked out at 11.2 µM. The Emax in assay [3] (setting [5]) is 143%. Also, the EC50 in assay [3] (setting [6]) was 17.5 µM.

For the origin of these results see US12390437B2, “Itaconic acid derivatives and uses thereof intreating an inflammatory disease or a disease associated with an undesirable immune response” (Sitryx Therapeutics Limited, priority 2019, dated 2025).
